# Data published in patent US20070299040A1, “Composition for Preventing a Cold” (BIOTECH INSTITUTE FOR INTERNATIONAL INNOVATION, INC., priority 2004, published 2007).
# Values joined by “and” are separate entries in the source; they are usually repeats but may differ in a detail not shown here. Equal values may be shown once.
# Columns and labels:
# Type in all cases: in vivo, human
# [1] = system: cold; assay: Analysis of cold cases, composition of Example 8 vs vitamin C and placebo (Experimental Example 3)
# Text: The present experiment example analyzed cold cases in the experiment group who took the composition of Example 8, and the control groups I and II who took vitamin C and placebo (wheat flour) respectively, throughout 40 months from 1999 to 2003. The intake is the same as 1 g after meal. Here, ‘cold’ is defined to show high fever or slight fever, sore throat, dry cough, headache, myalgia, and chill.
# As a result of the above experiment, the average of cold case a year per person in the experiment group who took the present composition, the control group I who took vitamin C, and the control group II who took placebo was 0, 1.5, and 5.6, respectively, all of which are statistically significant difference under 0.05% of significance probability. In sum, the composition of the present invention accomplished 100% of cold prevention effect.
# [2] = system: INF-γ; assay: Cytokine in serum by ELISA (Experimental Example 4); conditions: samples from persons after 40 months of intake; 10 samples
# Protocol: (§1) After such cultivating, the plates were washed, biotynilated secondary antibody was filled in each plate by […], and streptavidin ALP was added thereto, which was cultivated at 37° C. for 30 minutes. After washing the plates again, alkaline phosphatase PNPP was added thereto, and the plates were cultivated for 30 minutes and measured with ELISA reader at 405 nm.
# [3] = system: IL-10; assay: as above; conditions: samples from persons after 40 months of intake
# Protocol: as §1
# [4] = system: IL-4; assay: as above; conditions: samples from persons after 40 months of intake; 10 samples
# Protocol: as §1
# [5] = system: IL-12; assay: as above; conditions: samples from persons after 40 months of intake; 10 samples
# Protocol: as §1
# [6] = system: IL-2; assay: as above; conditions: samples from persons after 40 months of intake; 10 samples
# Protocol: as §1
smiles,measurement,setting,value
"O=C1O[C@H]([C@@H](O)CO)C(O)=C1O [Vitamin C, ascorbic acid]",average of cold case a year per person,"[1]; 40 months, 1 g after meal",1.5
same,cold prevention effect (in words),[1]; group administrating vitamin C only,some cold prevention effect
same,Frequency of cold in the control group taking vitamin C,"[1]; per person (one line per subject), 1 g after meal, 40 months 1999-2003",4 (7×) and 5 (5×) and 7 and 6 (2×)
same,Cytokine in serum INF-γ,[2],68 ± 12 pg/mL
same,Cytokine in serum IL-10,[3],10 ± 8 pg/mL
same,Cytokine in serum IL-4,[4],0.14 ± 0.03 pg/mL
same,Cytokine in serum IL-12,[5],20 ± 7 pg/mL
same,Cytokine in serum IL-2,[6],51 ± 19 pg/mL
